{"source": "patent US20140038953A1", "about": "“COMPOSITIONS AND METHODS FOR CARDIOVASCULAR DISEASE” (THE GENERAL HOSPITAL CORPORATION, priority 2011, published 2014)", "assay_type_in_all_cases": "in vivo", "key": {"LDLR−/− mice [1]": {"system": "LDLR−/− mice", "experiment": "Blood biochemical analysis in LDLR−/− mice on high fat diet", "protocol": "Female mice deficient for the low density lipoprotein receptor (LDLR^−/−) on a C57BL/6 background with appropriate control mice mice (eight weeks of age) were obtained from Jackson Laboratories (Bar Harbor, Me.). Animals were fed a western style diet formulated to match Paigen's Atherogenic Rodent Diet (42% fat, 0.15% cholesterol, 19.5% casein; Research Diets Inc., New Brunswick, N.J.).\n[…], white blood count, hematocrit, hemoglobin, and platelets were analyzed using a HemaTrue™ Hematology Analyzer (Heska AG, Switzerland). Urea nitrogen, glucose, alkaline phosphatase, total protein, alanine transaminase and creatinine were determined using a Spotchem EZ SP-4430 POCT analyzer (Arkray, Inc., Kyoto, Japan). HDL and LDL levels were determined using a fluorescence quantification kit (K613-100, Biovision, Mountain View, Calif.)"}, "LDLR−/− mice [2]": {"system": "LDLR−/− mice", "experiment": "Vascular calcification in LDLR−/− mice on high fat diet (Osteosense, Alizarin red)", "details": "high fat diet 20 weeks, 2.5 mg/kg ip daily, vs vehicle", "protocol": "Fluorescence reflectance imaging (FRI), was performed as previously described. (Aikawa, E., et al. Osteogenesis associates with inflammation in early-stage atherosclerosis evaluated by molecular imaging in vivo. Circulation 116, 2841-2850 (2007); and Aikawa, E., et al. Multimodality molecular imaging identifies proteolytic and osteogenic activities in early aortic valve disease. Circulation 115, 377-386 (2007).) Animals received 150 μl of OsteoSense 680 and 150 μl of ProSense 750 via tail vein injection 24 hours before euthanasia. After dissection, aortae were subjected to ex vivo near infrared fluorescence reflectance imaging using an Odyssey Imaging System (LI-COR Biotechnology, Lincoln, Nebr.), with integrated signal intensities determined for regions of interest using software version 3.0.16.\nAortas were either immediately embedded and cryopreserved using optimal cutting-temperature medium (Sakura Tissue-Tek, Zoeterwoude, The Netherlands) or fixed in paraformaldehyde and embedded in parafin. The presence of calcification was determined by staining tissue sections with Alizarin red or Von Kossa. Lipid accumulation in tissue sections was visualized by staining with Oil Red O. Liver sections were prepared from paraformaldehyde-fixed tissue and stained with hematoxylin and eosin. […]"}, "MGP−/− mice [3]": {"system": "MGP−/− mice", "experiment": "Aortic calcification in MGP−/− mice (Alizarin red, OsteoSense)", "details": "for aortic tissue calcium (Alizarin red staining): 28 days old", "protocol": "(§1) MGP−/− mice were treated with either vehicle or the small molecule BMP type I receptor inhibitor compound 13 (2.5 mg/kg once daily IP) from day 1 to 28. Compound 13 is used as a BMP inhibitor positive control compound in these experiments. Whole aortas were harvested for phospho-Smad 1/5/8 (P-Smad) immunohistochemistry, a marker of BMP signaling, and for Alizarin Red staining of calcium. Osteogenic activity in aortas was visualized ex vivo by the uptake of a fluorescent bisphosphonate imaging probe. MGP−/− mice were also treated with vehicle or compound 13 to ascertain if inhibition of BMP signaling could impact survival, using Kaplan-Meier and Cox regression analysis.\nMGP−/− mice were treated with intraperitoneal (IP) injections of either vehicle or compound 13 at 2.5 mg/kg/day from day 1-28. At day 28, aortas were harvested for both histology and RNA isolation. […] To further quantify aortic calcium, a fluorescent bisphosphonate agent that specifically binds to hydroxyapatite (OsteoSense 680 nm, Perkin Elmer) was used. (Aikawa E, et al. Multimodality molecular imaging identifies proteolytic and osteogenic activities in early aortic valve disease. Circulation. 2007; 115(3):377-386 and Zaheer A, et al. In vivo near-infrared fluorescence imaging of osteoblastic activity. Nature biotechnology. 2001; 19(12):1148-1154.) MGP−/− mice at 27 days of age treated with vehicle or compound 13 received OsteoSense via tail vein, and 24 h later, aortas were harvested for imaging. […] The reduction in BMP signaling and aortic calcification observed with compound 13 treatment of MGP−/− mice was associated with a >5-fold reduction in aortic Wnt3a gene expression, implicating the Wnt signaling pathway as an important mediator of BMP-dependent osteogenic differentiation (P<0.01).\nMGP−/− mice were treated with vehicle (n=7), compound 13 (2.5 mg/kg/day IP, n=6), or ALK3-Fc (2 mg/kg QOD IP, n=4) beginning on day 1 after birth. At day 27, mice were injected via the tail vein with a fluorescent bisphosphonate probe (Osteosense 680 nm, 2 nmol per mouse) that targets tissue calcification. Twenty-four hours later, aortae were harvested and imaged."}, "MGP−/− mice [4]": {"system": "MGP−/− mice", "experiment": "Survival of MGP−/− mice", "details": "2.5 mg/kg/day IP from day 1, n=10 in each group", "protocol": "as §1\nTwenty MGP−/− mice were treated either with vehicle (n=10) or compound 13 (2.5 mg/kg/day IP, n=10) beginning at day 1 of life and followed for survival."}, "Wnt3a gene expression": {"system": "Wnt3a gene expression", "experiment": "Aortic Wnt3a gene expression in MGP−/− mice", "details": "2.5 mg/kg/day IP day 1-28", "protocol": "Total cellular RNA from either snap frozen tissues or cultured cells was extracted by the Phenol/guanidine method as described. (Chomczynski, P. & Sacchi, N. Single-step method of RNA isolation by acid guanidinium thiocyanate-phenol-chloroform extraction. Anal Biochem 162, 156-159 (1987).) cDNA was synthesized using Moloney murine leukemia virus reverse transcriptase (Promega, Madison, Wis., USA).\nMGP−/− mice were treated with intraperitoneal (IP) injections of either vehicle or compound 13 at 2.5 mg/kg/day from day 1-28. At day 28, aortas were harvested for both histology and RNA isolation. […] To further quantify aortic calcium, a fluorescent bisphosphonate agent that specifically binds to hydroxyapatite (OsteoSense 680 nm, Perkin Elmer) was used. (Aikawa E, et al. Multimodality molecular imaging identifies proteolytic and osteogenic activities in early aortic valve disease. Circulation. 2007; 115(3):377-386 and Zaheer A, et al. In vivo near-infrared fluorescence imaging of osteoblastic activity. Nature biotechnology. 2001; 19(12):1148-1154.) MGP−/− mice at 27 days of age treated with vehicle or compound 13 received OsteoSense via tail vein, and 24 h later, aortas were harvested for imaging. […]"}, "[5]": {"details": "LDLR−/− mice, HFD 20 weeks, in words"}, "[6]": {"details": "female LDLR−/− mice, high fat diet 6 weeks, compound 13 2.5 mg/kg ip daily, ALK3-Fc 2 mg/kg ip every other day, mean ± SEM"}, "[7]": {"details": "female LDLR−/− mice, high fat diet 20 weeks, 2.5 mg/kg ip daily, mean ± SEM"}}, "note": "“Also recorded” adds a separate entry of the source. Marks after values point to notes of the source that are not given here."}
{"molecule": "c1ccc2c(-c3cnn4cc(-c5ccc(N6CCNCC6)cc5)cnc34)ccnc2c1", "note": "[Compound 13, 4-[6-(4-piperazin-1-ylphenyl)pyrazolo[1,5-a]pyrimidin-3-yl]quinoline]", "values": [{"measurement": "serum alanine transaminase (ALT) levels vs vehicle", "setting": "LDLR−/− mice [1]; LDLR−/− mice on HFD, in words", "value": "reduced"}, {"measurement": "serum alkaline phosphatase (ALP) levels vs vehicle", "setting": "LDLR−/− mice [1]; LDLR−/− mice on HFD, in words", "value": "reduced"}, {"measurement": "HDL cholesterol levels vs vehicle", "setting": "LDLR−/− mice [1]; [5]", "value": "not altered"}, {"measurement": "serum LDL cholesterol levels vs vehicle", "setting": "LDLR−/− mice [1]; [5]", "value": "lower serum LDL cholesterol levels"}, {"measurement": "total cholesterol levels vs vehicle", "setting": "LDLR−/− mice [1]; [5]", "value": "reduced total cholesterol levels"}, {"measurement": "serum LDL cholesterol levels vs vehicle", "setting": "LDLR−/− mice [1]; LDLR−/− mice, HFD 20 weeks, in words, listed as compound 13", "value": "reduced total cholesterol levels and LDL levels"}, {"measurement": "Alanine transaminase", "setting": "LDLR−/− mice [1]; [6]", "value": "233 ± 56", "unit": "IU/L"}, {"measurement": "Alkaline phosphatase", "setting": "LDLR−/− mice [1]; [6]", "value": "112 ± 20", "unit": "IU/L"}, {"measurement": "Blood urea nitrogen", "setting": "LDLR−/− mice [1]; [6]", "value": "24 ± 2", "unit": "mg/dL"}, {"measurement": "Cholesterol", "setting": "LDLR−/− mice [1]; [6]", "value": "1553 ± 77*^,§ mg/dl"}, {"measurement": "Creatinine", "setting": "LDLR−/− mice [1]; [6]", "value": "0.5 ± 0.1", "unit": "mg/dL"}, {"measurement": "Glucose", "setting": "LDLR−/− mice [1]; [6]", "value": "259 ± 20", "unit": "mg/dL"}, {"measurement": "Hemoglobin", "setting": "LDLR−/− mice [1]; [6]", "value": "12.9 ± 1.5", "unit": "g/dL"}, {"measurement": "Total protein", "setting": "LDLR−/− mice [1]; [6]", "value": "5.1 ± 0.1", "unit": "g/dL"}, {"measurement": "Triglycerides", "setting": "LDLR−/− mice [1]; [6]", "value": "112 ± 15", "unit": "mg/dL"}, {"measurement": "Alanine transaminase", "setting": "LDLR−/− mice [1]; [7]", "value": "130 ± 21‘ IU/L"}, {"measurement": "Alkaline phosphatase", "setting": "LDLR−/− mice [1]; [7]", "value": "84 ± 11", "unit": "IU/L"}, {"measurement": "Blood urea nitrogen", "setting": "LDLR−/− mice [1]; [7]", "value": "25 ± 2", "unit": "mg/dL"}, {"measurement": "Cholesterol", "setting": "LDLR−/− mice [1]; [7]", "value": "1401 ± 87", "unit": "mg/dL"}, {"measurement": "Creatinine", "setting": "LDLR−/− mice [1]; [7]", "value": "0.4 ± 0.0", "unit": "mg/dL"}, {"measurement": "Glucose", "setting": "LDLR−/− mice [1]; [7]", "value": "230 ± 19", "unit": "mg/dL"}, {"measurement": "HDL", "setting": "LDLR−/− mice [1]; [7]", "value": "73.8 ± 26.5", "unit": "mg/dL"}, {"measurement": "Hemoglobin", "setting": "LDLR−/− mice [1]; [7]", "value": "12.9 ± 0.8", "unit": "g/dL"}, {"measurement": "LDL", "setting": "LDLR−/− mice [1]; [7]", "value": "1166.3 ± 257.3", "unit": "mg/dL"}, {"measurement": "Total protein", "setting": "LDLR−/− mice [1]; [7]", "value": "4.3 ± 0.4", "unit": "g/dL"}, {"measurement": "Triglycerides", "setting": "LDLR−/− mice [1]; [7]", "value": "135 ± 16", "unit": "mg/dL"}, {"measurement": "vascular calcification / osteogenic activity (fluor-labeled bisphosphonate uptake, Alizarin red)", "setting": "LDLR−/− mice [2]", "value": "significantly less abundant; also recorded: reduced vascular calcification throughout the aortae; also recorded: severely diminished evidence of osteogenesis"}, {"measurement": "vascular calcification / osteogenic activity (fluor-labeled bisphosphonate uptake, Alizarin red)", "setting": "LDLR−/− mice [2]; listed as BMP inhibitor positive control compound", "value": "can reduce vascular calcification"}, {"measurement": "aortic tissue calcium (Alizarin red staining)", "setting": "MGP−/− mice [3]; treated from day 1", "value": "reduction in tissue calcium levels"}, {"measurement": "aortic tissue calcium (Alizarin red staining)", "setting": "MGP−/− mice [3]; treated from day 1, listed as compound 13", "value": "less calcification; also recorded: reduced vessel calcification"}, {"measurement": "arterial calcification by OsteoSense fluorescence", "setting": "MGP−/− mice [3]; day 1-28, compound 13 2.5 mg/kg/day IP, ALK3-Fc 2 mg/kg QOD IP", "value": "reduction of arterial calcification; also recorded: marked reduction in arterial calcification; also recorded: reduces vascular calcification"}, {"measurement": "reduction in aortic osteogenic activity compared to vehicle-treated controls", "setting": "MGP−/− mice [3]; fluorescent bisphosphonate probe, n=6 in each group", "value": 81, "unit": "%"}, {"measurement": "aortic osteogenic activity, normalized average intensity ±SEM", "setting": "MGP−/− mice [3]; vehicle 1.0±0.10", "value": "0.19±0.05"}, {"measurement": "Cox hazard ratio (survival)", "setting": "MGP−/− mice [4]", "value": 0.04}, {"measurement": "survival compared to vehicle-treated controls", "setting": "MGP−/− mice [4]", "value": "improved survival"}, {"measurement": "reduction in aortic Wnt3a gene expression", "setting": "Wnt3a gene expression", "value": "> 5", "unit": "fold"}]}
